Laboratory results: BindingDB's records for patent US20260008775 (Genentech, 2026)

Biological target: 3-beta-hydroxysteroid-Delta(8),Delta(7)-isomerase (Homo sapiens, UniProt Q15125)
Assay: Determination of Binding Affinity to EBP-7-Dehydrocholesterol Reductase
Procedure: The plates were sealed and incubated at 4° C. for 3 hrs. Then, the plates were washed with ice-cold assay buffer 3 times. […] Following this, the plate was centrifuged at 1000 rpm for 30 secs. The plate was then sealed and agitated at 600 rpm at 22° C. for 5 min, and then incubated at 22° C. for 3 hrs. The incubation was stopped by transferring the binding solution to the pre-treated UniFilter-96 GF/B plate, vacuum filtrated, and then washed four times with ice-cold assay buffer. Following this, the plates were dried at 37° C. for 45 min. The plates were then sealed at the bottom. 40 µl/well of scintillation cocktail was added to the plates.

Sequence of 3-beta-hydroxysteroid-Delta(8),Delta(7)-isomerase (Q15125 whole entry): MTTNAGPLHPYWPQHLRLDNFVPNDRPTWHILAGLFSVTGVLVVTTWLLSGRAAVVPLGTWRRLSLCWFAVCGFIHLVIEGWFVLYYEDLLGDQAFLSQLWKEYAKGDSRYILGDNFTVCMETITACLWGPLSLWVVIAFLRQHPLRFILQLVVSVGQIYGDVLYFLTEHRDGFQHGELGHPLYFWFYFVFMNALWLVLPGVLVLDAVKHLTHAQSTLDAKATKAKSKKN

Ki: 188 nM
Compound: CC(C)n1nc(-c2cncc(C(F)(F)F)c2)cc1[C@H]1[C@@H]2C[C@@H](N3CCOCC3)C[C@@H]21 [US20260008775, Example Table4.2]
